The numbers were not newly measured in patent publication US10406232B2, “Oral delivery compositions for treating dermatitis disorders in mammals” (Vets Plus, Inc., priority 2015, dated 2019), which cites them from elsewhere.

The subject of this data set is dendritic cells (DCs). As to conditions: through sequential p38 MAP kinase phosphorylation and caspase 3-activation.

On to `CC(C)[C@]12O[C@H]1[C@@H]1O[C@]13[C@]1(O[C@H]1C[C@H]1C4=C(CC[C@@]13C)C(=O)OC4)[C@@H]2O` [triptolide], for which the “concentration that induces apoptosis of DCs” value was at least 20 ng/mL.
